SMILES strings stand for the structures. Values after ≈ are worked out from the molar mass of the structure shown.

Holding throughout (type): functional
Test [1] has as its system Helicobacter pylori. Put plainly: Minimum inhibitory concentration against Helicobacter pylori.
The test system of test [2] is Helicobacter pylori. In words: Minimum inhibitory concentration against Helicobacter pylori under acidic conditions at pH 5.0.
The subject of test [3] is Helicobacter pylori. In words: Minimum inhibitory concentration against Helicobacter pylori under acidic conditions at pH 6.0.
Test [4] has as its system Helicobacter pylori. In words: Minimum inhibitory concentration against Helicobacter pylori under acidic conditions at pH 7.0.

`CNC(=O)c1cccc(NC(=O)Cc2ccc(Cl)cc2)c1` displayed an MIC in test [1] of 0.78 µg/mL (≈ 2.58 µM).

Take `CNC(=O)c1cccc(NC(=O)OCc2ccc3ccccc3c2)c1`: the MIC in test [1] was found to be 0.1 µg/mL (≈ 0.299 µM).

For `CCNC(=O)c1cccc(NC(=O)Cc2cccc(Br)c2)c1`, the MIC in test [1] was 3.12 µg/mL (≈ 8.64 µM).

Consider `CNC(=O)c1cccc(NC(=O)Cc2cccc([N+](=O)[O-])c2)c1`, for which, in test [1], the MIC was determined as 3.12 µg/mL (≈ 9.96 µM).

As to `CNC(=O)c1cccc(NC(=O)Cc2cccc(F)c2)c1`, in test [1], the MIC worked out at 3.12 µg/mL (≈ 10.9 µM).

Compound `CNC(=O)c1cccc(NC(=O)OCc2ccc(Cl)cc2)c1` came in with an MIC in test [1] of 0.2 µg/mL (≈ 0.627 µM).

Regarding `CNC(=O)c1cccc(NC(=O)Cc2cccc(OC)c2)c1`, in test [1], the MIC turned out to be 0.78 µg/mL (≈ 2.61 µM).

For the compound `CNC(=O)c1cccc(NC(=O)Cc2cccc(C)c2)c1`, the MIC in test [1] worked out at 0.39 µg/mL (≈ 1.38 µM).

The compound `CNC(=O)c1cccc(NC(=O)CCc2ccccc2)c1` showed an MIC in test [1] of 12.5 µg/mL (≈ 44.3 µM). This MIC is about 32-fold higher than that of the compound before.

Take `CNC(=O)c1cccc(NC(=O)Cc2c[nH]c3ccccc23)c1`: the MIC in test [1] amounted to 0.78 µg/mL (≈ 2.54 µM).

`CNC(=O)c1cccc(NC(=O)Cc2ccc(Br)cc2)c1` yielded an MIC in test [1] of 0.78 µg/mL (≈ 2.25 µM).

Regarding `CNC(=O)c1cccc(NC(=O)OCc2c(Cl)cccc2Cl)c1`, the MIC in test [1] amounted to 0.2 µg/mL (≈ 0.566 µM). Against the preceding compound, the MIC is about 3.9-fold lower.

Turning to `CNC(=O)c1cccc(NC(=O)COc2cccc(Cl)c2Cl)c1`, in test [1], the MIC stood at 0.39 µg/mL (≈ 1.1 µM).

Regarding `CNC(=O)c1cccc(NC(=O)Cc2ccccc2)c1`, 1.56 µg/mL (≈ 5.81 µM) was the least that counted as inhibitory in test [1] (MIC).

Turning to `CNC(=O)c1cccc(NC(=O)CCc2ccccc2OC)c1`, in test [1], the MIC stood at 0.78 µg/mL (≈ 2.5 µM). This MIC lies about 2-fold lower than the previous one.

`CONC(=O)c1cccc(NC(=O)Cc2cccc(Br)c2)c1` came in with an MIC in test [1] of 12.5 µg/mL (≈ 34.4 µM).

In turn, `CNC(=O)c1cccc(NC(=O)COc2cccc3ccccc23)c1` gave an MIC in test [1] of 0.1 µg/mL (≈ 0.299 µM). Compared with the last compound, the MIC is about 120-fold lower.

`O=C(Cc1cccc(Br)c1)Nc1cccc(C(=O)NO)c1` returned an MIC in test [1] of 12.5 µg/mL (≈ 35.8 µM).

For `CNC(=O)c1cccc(NC(=O)Cc2cccc(OCc3ccccc3)c2)c1`, the MIC in test [1] came out at 0.78 µg/mL (≈ 2.08 µM).

Take `CNC(=O)c1cccc(NC(=O)Cc2cccc(Cl)c2)c1`: the MIC in test [1] worked out at 0.39 µg/mL (≈ 1.29 µM).

With `CNC(=O)c1cccc(NC(=O)Cc2ccccc2Cl)c1`, the MIC in test [1] was 3.12 µg/mL (≈ 10.3 µM).

For `CNC(=O)c1cccc(NC(=O)COc2ccc3ccccc3c2)c1`, the MIC in test [1] came to 0.39 µg/mL (≈ 1.17 µM). This MIC lies about 8-fold lower than the previous one.

`CNC(=O)c1cccc(NC(=O)Cc2cccc3ccccc23)c1`: the minimum inhibitory concentration (MIC) in test [1] came to 0.1 µg/mL (≈ 0.314 µM); in test [2], 0.125 µg/mL (≈ 0.393 µM); in test [3], 0.125 µg/mL (≈ 0.393 µM); in test [4] it was 0.125 µg/mL (≈ 0.393 µM).

For the compound `CNC(=O)c1cccc(NC(=O)Cc2csc3ccccc23)c1`, the MIC in test [1] is 0.1 µg/mL (≈ 0.308 µM); in test [2], 0.25 µg/mL (≈ 0.771 µM); in test [3], 0.25 µg/mL (≈ 0.771 µM); in test [4], 0.25 µg/mL (≈ 0.771 µM).

As to `O=C(Cc1cccc(Br)c1)Nc1cccc(C(=O)O)c1`, the minimal inhibitory concentration (MIC) in test [1] is above 100 µg/mL.

For the compound `CNC(=O)c1cccc(NC(=O)Cc2ccc3ccccc3c2)c1`, the minimum inhibitory concentration (MIC) is 0.05 µg/mL (≈ 0.157 µM) in test [1], 0.063 µg/mL (≈ 0.198 µM) in test [2], 0.063 µg/mL (≈ 0.198 µM) in test [3] and 0.063 µg/mL (≈ 0.198 µM) in test [4].

Compound `CNC(=O)c1cccc(NC(=O)COc2ccccc2)c1` had an MIC in test [1] of 3.12 µg/mL (≈ 11 µM).

With `CNC(=O)c1cccc(NC(=O)Cc2cccc(Br)c2)c1`, the lowest concentration to inhibit growth in test [1] (MIC) was 0.39 µg/mL (≈ 1.12 µM).

Take `CCOC(=O)c1cccc(NC(=O)Cc2cccc(Br)c2)c1`: the MIC in test [1] is above 100 µg/mL.

Consider `CNC(=O)c1cccc(NC(=O)CC2CCCCC2)c1`, for which, in test [1], the MIC was 12.5 µg/mL (≈ 45.6 µM).

On to `NC(=O)c1cccc(NC(=O)Cc2cccc(Br)c2)c1`, for which 100 µg/mL (≈ 300 µM) was the least that counted as inhibitory in test [1] (MIC).

`CNC(=O)c1cccc(NC(=O)Cc2ccc3c(c2)OCO3)c1`: in test [1], the MIC turned out to be 0.78 µg/mL (≈ 2.5 µM).

Regarding `CNC(=O)c1cccc(NC(=O)OCc2cccc3ccccc23)c1`, the MIC in test [1] is 0.05 µg/mL (≈ 0.15 µM).

As for `CNC(=O)c1cccc(NC(=O)Cc2cccc(O)c2)c1`, 6.25 µg/mL (≈ 22 µM) was the least that counted as inhibitory in test [1] (MIC).

In test [1], `CNC(=O)c1cccc(NC(=O)OCc2ccc(C)cc2)c1` displayed an MIC of 0.1 µg/mL (≈ 0.335 µM). This MIC lies about 62-fold lower than the previous one.

`CN(C)C(=O)c1cccc(NC(=O)Cc2cccc(Br)c2)c1` registered an MIC in test [1] of 25 µg/mL (≈ 69.2 µM).

Turning to `CC1(C)S[C@@H]2[C@H](NC(=O)[C@H](N)c3ccc(O)cc3)C(=O)N2[C@H]1C(=O)O` [AMOXICILLIN], the MIC was determined as 0.5 µg/mL (≈ 1.37 µM) in test [2], 0.125 µg/mL (≈ 0.342 µM) in test [3] and 0.031 µg/mL (≈ 0.0848 µM) in test [4].

Take `CC[C@H]1OC(=O)[C@H](C)[C@@H](O[C@H]2C[C@@](C)(OC)[C@@H](O)[C@H](C)O2)[C@H](C)[C@@H](O[C@@H]2O[C@H](C)C[C@H](N(C)C)[C@H]2O)[C@](C)(OC)C[C@@H](C)C(=O)[C@H](C)[C@@H](O)[C@]1(C)O` [CLARITHROMYCIN]: the minimum inhibitory concentration (MIC) in test [1] was determined as 0.05 µg/mL (≈ 0.0668 µM); in test [2] it was 2 µg/mL (≈ 2.67 µM); in test [3], 0.5 µg/mL (≈ 0.668 µM); in test [4], 0.063 µg/mL (≈ 0.0842 µM).

The record behind these values is ChEMBL document CHEMBL1134310, “3-(Arylacetylamino)-N-methylbenzamides: a novel class of selective anti-Helicobacter pylori agents” (2001).
